In one data set the test system is Baculovirus/HEK293. Particulars: 24 h.
In another data set the test system is red blood cells (RBC). Put plainly: RBC swelling (enlarged pellet after centrifugation). Particulars: 1 h; for RBC swelling: peptides diluted in PBS (absence of serum), up to 20 µM, pellet size after centrifugation; for RBC swelling in the presence of serum: peptides diluted in 10% human/donor serum.
In data set [1] the test system is mouse cytomegalovirus (MCMV)/NIH/3T3 cells. Particulars: 72 h.

Residues, ends and D or L forms follow the SMILES beside them.

As usually defined, the IC50 is the concentration needed to halve the response being measured. Higher therefore signals weaker potency. As for `CC(C)C[C@H](NC(=O)[C@H](CO)NC(=O)[C@H](C)NC(=O)[C@H](Cc1ccc(O)cc1)NC(=O)[C@H](Cc1ccccc1)NC(=O)[C@H](C)NC(=O)[C@H](CC(C)C)NC(=O)[C@H](CCC(N)=O)NC(=O)[C@@H]1CCCN1C(=O)[C@@H]1CCCN1C(=O)[C@H](CCCNC(=N)N)NC(=O)[C@H](CCCNC(=N)N)NC(=O)[C@H](CCCNC(=N)N)NC(=O)[C@H](CCC(N)=O)NC(=O)[C@H](CCCNC(=N)N)NC(=O)[C@H](CCCNC(=N)N)NC(=O)[C@H](CCCCN)NC(=O)[C@H](CCCCN)NC(=O)[C@H](CCCNC(=N)N)NC(=O)CN)C(=O)N[C@@H](C)C(=O)N[C@@H](Cc1ccccc1)C(=O)O` [TAT-M219] (H-GRKKRRQRRRPPQLAFYASLAF-OH), the IC50 with Baculovirus/HEK293 is 96 nM; in data set [1], 7380 nM. The RBC swelling entry in the data set with red blood cells (RBC) is reported as “did not cause RBC swelling in the absence of serum even at 20 µM”.

For `CC(C)C[C@H](NC(=O)[C@H](CS)NC(=O)[C@H](CCC(N)=O)NC(=O)[C@@H]1CCCN1C(=O)[C@@H]1CCCN1C(=O)[C@H](CCCNC(=N)N)NC(=O)[C@H](CCCNC(=N)N)NC(=O)[C@H](CCCNC(=N)N)NC(=O)[C@H](CCC(N)=O)NC(=O)[C@H](CCCNC(=N)N)NC(=O)[C@H](CCCNC(=N)N)NC(=O)[C@H](CCCCN)NC(=O)[C@H](CCCCN)NC(=O)[C@H](CCCNC(=N)N)NC(=O)CN)C(=O)N[C@@H](C)C(=O)N[C@H](C(=O)N[C@@H](Cc1ccc(O)cc1)C(=O)N[C@@H](CC(=O)O)C(=O)N[C@@H](CS)C(=O)N[C@@H](Cc1ccccc1)C(=O)N[C@H](C(=O)O)C(C)C)C(C)C` [TAT-M17] (H-GRKKRRQRRRPPQCLAVYDCFV-OH; N-terminus and C-terminus assumed), the IC50 in the data set with Baculovirus/HEK293 is 102 nM; in data set [1], 5850 nM. Further, the RBC swelling entry in the data set with red blood cells (RBC) is “did not cause RBC swelling in the absence of serum even at 20 µM”.

For `CC(C)C[C@H](NC(=O)[C@H](CS)NC(=O)[C@H](C)NC(=O)[C@H](Cc1ccc(O)cc1)NC(=O)[C@H](Cc1ccccc1)NC(=O)[C@H](C)NC(=O)[C@H](CC(C)C)NC(=O)[C@H](CCC(N)=O)NC(=O)[C@@H]1CCCN1C(=O)[C@@H]1CCCN1C(=O)[C@H](CCCNC(=N)N)NC(=O)[C@H](CCCNC(=N)N)NC(=O)[C@H](CCCNC(=N)N)NC(=O)[C@H](CCC(N)=O)NC(=O)[C@H](CCCNC(=N)N)NC(=O)[C@H](CCCNC(=N)N)NC(=O)[C@H](CCCCN)NC(=O)[C@H](CCCCN)NC(=O)[C@H](CCCNC(=N)N)NC(=O)CN)C(=O)N[C@@H](C)C(=O)N[C@@H](Cc1ccccc1)C(=O)O` [TAT-M40] (H-GRKKRRQRRRPPQLAFYACLAF-OH), the figures for the IC50 (in the data set with Baculovirus/HEK293; in data set [1]) were 21 nM and 1850 nM, respectively. Besides, the RBC swelling entry with red blood cells (RBC) is recorded as “caused RBC swelling at higher concentrations”.

Consider `CC(C)C[C@H](NC(=O)[C@H](CS)NC(=O)[C@H](C)NC(=O)[C@H](Cc1ccc(O)cc1)NC(=O)[C@H](Cc1ccccc1)NC(=O)[C@H](C)NC(=O)[C@H](CC(C)C)NC(=O)[C@H](CS)NC(=O)[C@@H]1CCCN1C(=O)[C@H](CCCNC(=N)N)NC(=O)[C@H](CCCNC(=N)N)NC(=O)[C@H](CCCNC(=N)N)NC(=O)[C@H](CCC(N)=O)NC(=O)[C@H](CCCNC(=N)N)NC(=O)[C@H](CCCNC(=N)N)NC(=O)[C@H](CCCCN)NC(=O)[C@H](CCCCN)NC(=O)[C@H](CCCNC(=N)N)NC(=O)CN)C(=O)N[C@@H](C)C(=O)N[C@@H](Cc1ccccc1)C(=O)N[C@@H](Cc1ccc(O)cc1)C(=O)N[C@@H](C)C(=O)N[C@@H](CS)C(=O)O` [TAT-M212] (H-GRKKRRQRRRPCLAFYACLAFYAC-OH), for which the IC50 with Baculovirus/HEK293 was determined as 619 nM; in data set [1], 18200 nM. Moreover, the RBC swelling entry in the data set with red blood cells (RBC) is “caused RBC swelling over a broad concentration range comparable to TAT-M214”.

Take `CC(C)[C@H](NC(=O)[C@H](CO)NC(=O)[C@H](CCC(N)=O)NC(=O)[C@@H]1CCCN1C(=O)[C@@H]1CCCN1C(=O)[C@H](CCCNC(=N)N)NC(=O)[C@H](CCCNC(=N)N)NC(=O)[C@H](CCCNC(=N)N)NC(=O)[C@H](CCC(N)=O)NC(=O)[C@H](CCCNC(=N)N)NC(=O)[C@H](CCCNC(=N)N)NC(=O)[C@H](CCCCN)NC(=O)[C@H](CCCCN)NC(=O)[C@H](CCCNC(=N)N)NC(=O)CN)C(=O)N[C@@H](Cc1ccccc1)C(=O)N[C@@H](Cc1ccc(O)cc1)C(=O)N[C@@H](C)C(=O)N[C@@H](CS)C(=O)N[C@@H](Cc1ccccc1)C(=O)N[C@@H](C)C(=O)N[C@@H](CS)C(=O)O` [TAT-De1] (H-GRKKRRQRRRPPQSVFYACFAC-OH): the IC50 with Baculovirus/HEK293 came to 37 nM; in data set [1], 1610 nM. In addition, the RBC swelling result in the data set on red blood cells (RBC) is “less effect on RBC swelling”.

Regarding `CC(C)C[C@H](NC(=O)[C@H](Cc1ccccc1)NC(=O)[C@H](CS)NC(=O)[C@H](Cc1ccccc1)NC(=O)[C@@H]1CCCN1C(=O)[C@H](CO)NC(=O)[C@H](CCC(N)=O)NC(=O)[C@@H]1CCCN1C(=O)[C@@H]1CCCN1C(=O)[C@H](CCCNC(=N)N)NC(=O)[C@H](CCCNC(=N)N)NC(=O)[C@H](CCCNC(=N)N)NC(=O)[C@H](CCC(N)=O)NC(=O)[C@H](CCCNC(=N)N)NC(=O)[C@H](CCCNC(=N)N)NC(=O)[C@H](CCCCN)NC(=O)[C@H](CCCCN)NC(=O)[C@H](CCCNC(=N)N)NC(=O)CN)C(=O)N[C@@H](C)C(=O)N[C@@H](Cc1ccccc1)C(=O)N[C@@H](CS)C(=O)N[C@@H](Cc1ccccc1)C(=O)O` [TAT-T7] (H-GRKKRRQRRRPPQSPFCFLAFCF-OH; N-terminus and C-terminus assumed), the values for the IC50 (in the data set on Baculovirus/HEK293; in data set [1]) were 17 nM and 1130 nM, respectively. The “RBC swelling in the presence of serum” value with red blood cells (RBC) is given as “not in the presence of donor serum”. For the same molecule, the RBC swelling result in the data set with red blood cells (RBC) was “caused RBC swelling at higher concentrations”.

Take `CC(C)C[C@H](NC(=O)[C@H](CS)NC(=O)[C@H](CCC(N)=O)NC(=O)[C@@H]1CCCN1C(=O)[C@@H]1CCCN1C(=O)[C@H](CCCNC(=N)N)NC(=O)[C@H](CCCNC(=N)N)NC(=O)[C@H](CCCNC(=N)N)NC(=O)[C@H](CCC(N)=O)NC(=O)[C@H](CCCNC(=N)N)NC(=O)[C@H](CCCNC(=N)N)NC(=O)[C@H](CCCCN)NC(=O)[C@H](CCCCN)NC(=O)[C@H](CCCNC(=N)N)NC(=O)CN)C(=O)N[C@@H](C)C(=O)N[C@H](C(=O)N[C@@H](Cc1c[nH]cn1)C(=O)N[C@@H](CC(=O)O)C(=O)N[C@@H](CS)C(=O)N[C@@H](Cc1ccccc1)C(=O)N[C@H](C(=O)O)C(C)C)C(C)C` [TAT-M22] (H-GRKKRRQRRRPPQCLAVHDCFV-OH; N-terminus and C-terminus assumed): the IC50 in the data set with Baculovirus/HEK293 was found to be 245 nM; in data set [1], 11800 nM. Moreover, the RBC swelling entry in the data set on red blood cells (RBC) was “did not cause RBC swelling in the absence of serum even at 20 µM”.

As for `CC(C)C[C@H](NC(=O)[C@H](CS)NC(=O)[C@H](CCC(N)=O)NC(=O)[C@@H]1CCCN1C(=O)[C@@H]1CCCN1C(=O)[C@H](CCCNC(=N)N)NC(=O)[C@H](CCCNC(=N)N)NC(=O)[C@H](CCCNC(=N)N)NC(=O)[C@H](CCC(N)=O)NC(=O)[C@H](CCCNC(=N)N)NC(=O)[C@H](CCCNC(=N)N)NC(=O)[C@H](CCCCN)NC(=O)[C@H](CCCCN)NC(=O)[C@H](CCCNC(=N)N)NC(=O)CN)C(=O)N[C@@H](C)C(=O)N[C@@H](Cc1ccccc1)C(=O)N[C@@H](Cc1ccc(O)cc1)C(=O)N[C@@H](C)C(=O)N[C@@H](CS)C(=O)N[C@@H](Cc1ccccc1)C(=O)N[C@@H](CS)C(=O)O` [TAT-I24] (H-GRKKRRQRRRPPQCLAFYACFC-OH), the IC50 in the data set with Baculovirus/HEK293 turned out to be 16 nM; in data set [1], 809 nM. For the same molecule, the “RBC swelling in the presence of serum” value in the data set with red blood cells (RBC) is “not in the presence of donor serum”. Further, the RBC swelling result with red blood cells (RBC) is “caused RBC swelling at higher concentrations”.

With `CC[C@H](C)[C@H](NC(=O)[C@H](C)NC(=O)[C@H](CC(C)C)NC(=O)[C@H](CS)NC(=O)[C@H](CCC(N)=O)NC(=O)[C@@H]1CCCN1C(=O)[C@@H]1CCCN1C(=O)[C@H](CCCNC(=N)N)NC(=O)[C@H](CCCNC(=N)N)NC(=O)[C@H](CCCNC(=N)N)NC(=O)[C@H](CCC(N)=O)NC(=O)[C@H](CCCNC(=N)N)NC(=O)[C@H](CCCNC(=N)N)NC(=O)[C@H](CCCCN)NC(=O)[C@H](CCCCN)NC(=O)[C@H](CCCNC(=N)N)NC(=O)CN)C(=O)N[C@@H](Cc1ccc(O)cc1)C(=O)N[C@@H](CC(=O)O)C(=O)N[C@@H](CS)C(=O)N[C@@H](Cc1ccccc1)C(=O)N[C@@H](CS)C(=O)O` [TAT-M13] (H-GRKKRRQRRRPPQCLAIYDCFC-OH), the IC50 in the data set with Baculovirus/HEK293 worked out at 31 nM; in data set [1], 1220 nM. The RBC swelling result in the data set with red blood cells (RBC) is “caused RBC swelling at higher concentrations”.
